Test results taken from patent publication US8318953B2, “Reactive coumarin derivatives and their use in cellular analyses” (AAT Bioquest, Inc., priority 2010, dated 2012).

Assays:
[1] = tested on: intracellular esterases; experiment: Relative stability and cleavage by intracellular esterases
Text: Chemically reactive enzyme substrate compounds will covalently attach to a corresponding functional group of cell components, forming the complexes of enzyme substrates-cell components or enzyme products-cell components. Using enzyme substrate compounds to label reactive sites on the surface of cells, in cell membranes or in intracellular compartments such as organelles, or in the cell's cytoplasm, permits the determination of their presence or quantity, accessibility, or their spatial and temporal distribution in the sample. […] Photoreactive enzyme substrates can be used similarly to photolabel components of the outer membrane of biological cells or as photo-fixable polar tracers for cells.

[2] = tested on: Jurkat cells; experiment: Flow cytometric monitoring of cell proliferation after dye loading; format: cell-based; details: Jurkat cells loaded with 5 μM dye loading solution at 37° C. for 1 hour; flow cytometric analysis
Description: Compound ES 9 is dissolved in anhydrous DMSO to make 5 mM stock solution, and diluted in PBS buffer to make 5 μM dye loading solution. Jurkat cells are loaded with the dye loading solution of Compound ES9 at 37° C. for 1 hour. The cells are washed with PBS buffer to remove serum. The resulted cells are cultured and passed for flow cytometric analysis as desired. Compound ES9 is used to monitor cell proliferation of nine passages.
ES compounds are retained by cells and shared by the daughter cells at each division, resulting in multimodal flow cytometric ES staining histograms, with each cell generation clustering around half the fluorescence intensity of the previous one. ES compounds are dissolved in anhydrous DMSO, and the stock solutions are used promptly. To prepare the cell working solutions (from 1 to 100 μM) the DMSO stock solutions of ES compounds are diluted with Hanks and 20 mM Hepes buffer (HHBS, pH 7 with 0.02% PF-127). The Jurkat cells are treated with test compounds for a desired period of time, and centrifuged give 1-5×10^5 cells per tube. The cells are resuspended in 500 μL of the ES compound working solutions, and incubated at room temperature or 37° C. for 5 to 10 min. […] The fluorescence of ES compound staining are monitored at Ex/Em=405/450 nm, 405/500 nm or 405/550 nm with a fluorescence microscope or a flow cytometer.

[3] = tested on: CPA cells; experiment: Absorption and emission spectra of cell lysates after incubating cells with the substrate; format: cell-based; details: CPA cells incubated with compound (5 μM) for 1 h, lysed with 1% Triton X-100; pH=9.0 buffer
Description: CPA cells are incubated with Compound ES1 (5 μM) for 1 h, and lysed with 1% Triton® X-100. The cell lysates from the enzymatic hydrolysis of Compound ES1 have a maximum absorption around 409 nm, which matches very well the 405 nm violet laser excitation of a typical flow cytometer.
CPA cells are incubated with Compound ES7 (5 μM) for 1 h, and lysed with 1% Triton® X-100. The cell lysates from the enzymatic hydrolysis of ES7 have a maximum absorption around 416 nm, which matches very well the 405 nm violet laser excitation of a typical flow cytometer.

| SMILES | stability relative to Compound ES 18 [1] | also measured |
| --- | --- | --- |
| CC(=O)Oc1cc2oc(=O)c(-c3ccc(CCCCCC(=O)NCCN4C(=O)C=CC4=O)s3)cc2cc1Cl [Compound 10] | more stable than Compound ES 18 |  |
| CC(=O)OCOc1c(Cl)cc2cc(C(=O)ON3C(=O)CCC3=O)c(=O)oc2c1Cl [Compound 5] | more stable than Compound ES 18 |  |
| CC(=O)Oc1cc2oc(=O)c(-c3ccc(CCCCCC(=O)ON4C(=O)CCC4=O)s3)cc2cc1Cl [ES9] |  | passages over which cell proliferation is monitored [2]: nine |
| CC(=O)Oc1c(F)cc2cc(C(=O)ON3C(=O)CCC3=O)c(=O)oc2c1F [ES18] |  | cleavage by intracellular esterases [1]: cleaved by intracellular esterases more slowly |
| CC(=O)Oc1cc2oc(=O)c(-c3ccc(CCCCCC(=O)ON4C(=O)CCC4=O)s3)cc2cc1Cl [Compound 9] | more stable than Compound ES 18 |  |
| CC(=O)Oc1c(Cl)cc2cc(C(=O)NCCCCCN3C(=O)C=CC3=O)c(=O)oc2c1F [ES7] |  | maximum absorption of cell lysates from the enzymatic hydrolysis [3]: around 416 nm |
| CC(=O)Oc1cc2oc(=O)c(C(=O)ON3C(=O)CCC3=O)cc2cc1Cl [ES1] | more stable than Compound ES 18 | maximum absorption of cell lysates from the enzymatic hydrolysis [3]: around 409 nm |
